Structures are written as SMILES. Entries after “also recorded” stand apart in the source; their conditions may differ.

One test concerns activated T cells (P14). The format is cell-based, mice. As to conditions: for killing of activated T cells in vitro: agent itself, overnight culture.
The subject of test [1] is LCMV-infected prf−/− mice. Conditions: mouse, in vivo.
The test system of test [2] is reactivated memory T cells. As to the kind of experiment: Depletion of memory T cells reactivated in vivo with liposomal GP33 peptide in WT mice. Conditions: etoposide 100 mg/kg/dose x2, or etoposide 25 mg/kg/dose + nutlin 50 mg/kg x4.
Test [3] has as its system experimental autoimmune encephalitis. Conditions: in vivo.
The test system of a further test is HLH. Conditions: HLH patients, etoposide-based therapy, increased from approximately 0%; cited from earlier work.
The test system of test [4] is activated T cells. Set-up: species or system mice. Conditions: mouse.
The test system of test [5] is activated T cells. It is filed as cell-based, mice. As to conditions: culture of activated T cells with agent.

For `O=C1C(Cl)=C(N2CCOCC2)C(=O)N1c1ccc(Cl)c(Cl)c1` [Ri-1, 3-chloro-1-(3,4-dichlorophenyl)-4-morpholino-1H-pyrrole-2,5-dione], in the test with activated T cells (P14), the “potentiation of etoposide killing of activated T cells in vitro” value (“potentiation of etoposide killing … in vitro” below) was “substantial synergy with etoposide in vitro” and the “killing of activated T cells in vitro” value is on record as “kill activated T cells in vitro”.
With `COc1cc([C@@H]2c3cc4c(cc3[C@@H](O[C@@H]3O[C@@H]5CO[C@@H](C)O[C@H]5[C@H](O)[C@H]3O)[C@H]3COC(=O)[C@H]23)OCO4)cc(OC)c1O` [etoposide], in test [1], the “inflammatory cytokines/disease-specific inflammatory markers” value is on record as “decreased inflammatory cytokines/disease-specific inflammatory markers”, the pancytopenia result was “alleviated pancytopenia” and the “survival / rescue from HLH-like disease” value was “allowed survival; also recorded: rescues LCMV-infected prf−/− mice from HLH-like disease”. Also, in test [2], the “depletion of reactivated memory T cells in vivo” value is recorded as “ablated”. Moreover, the “therapeutic effect in experimental autoimmune encephalitis” value in test [3] was “highly therapeutic”. Besides, the long-term survival with HLH is 55%.
As to `COc1ccc(C2=NC(c3ccc(Cl)cc3)C(c3ccc(Cl)cc3)N2C(=O)N2CCNC(=O)C2)c(OC(C)C)c1` (stereo not drawn) [nutlin], the “potentiation of low dose etoposide for depletion of activated T cells in vivo” value in the test on activated T cells [4] was “potentiates etoposide immunomodulation in vivo”. Also, in the test with activated T cells (P14), the “potentiation of etoposide killing … in vitro” value was “dramatically shifts the etoposide:death, dose:response curve”.
On to `NC(=O)C1CCCc2c1[nH]c1ccc(Cl)cc21` (stereo not drawn) [Ex527], for which the “potentiation of etoposide killing … in vitro” value in the test with activated T cells (P14) is reported as “enhance etoposide killing of activated T cells in vitro”.
With `CCOc1cc(/C=C2/C(=O)N(c3ccccc3)N=C2C)cc(Cl)c1OCC(=O)OC` [Sj-172550], the “potentiation of etoposide killing … in vitro” value in the test with activated T cells (P14) is given as “enhance etoposide killing of activated T cells in vitro”.
`C=CCn1c(=O)c2cnc(Nc3ccc(N4CCN(C)CC4)cc3)nc2n1-c1cccc(C(C)(C)O)n1` [MK-1775]: in the test on activated T cells (P14), the “potentiation of etoposide killing … in vitro” value is “potentiate etoposide killing of activated T cells in vitro” and the “killing of activated T cells in vitro” value is “selectively kill activated T cells”.
For the compound `NC(=O)Nc1cc(-c2cccc(F)c2)sc1C(=O)N[C@H]1CCCNC1` [AZD7762], the “potentiation of low dose etoposide for depletion of activated T cells in vivo” value in the test on activated T cells [4] was “strongly synergizes with etoposide in vivo”. In the test on activated T cells (P14), the “potentiation of etoposide killing … in vitro” value was “potentiate etoposide killing of activated T cells in vitro” and the “killing of activated T cells in vitro” value is listed as “kill activated T cells in vitro; also recorded: selectively kill activated T cells”. Further, the “DNA damage (gammaH2AX) in activated T cells in vitro” value in the test with activated T cells [5] is recorded as “leads to accumulation of spontaneous DNA damage; also recorded: led to increasing DNA damage”.

The values are drawn from patent US20160022720A1, “COMPOSITIONS AND METHODS FOR TREATING DISEASE STATES ASSOCIATED WITH ACTIVATED T CELLS AND/OR B CELLS” (priority 2013, published 2016).
